Results from US8314150B2, “Kinase protein binding inhibitors” (priority 2008, dated 2012).

Test system: Panc-1 cells
Experiment: Detachment assay, Panc-1
Assay type: cell-based, human
Conditions: for detachment: 48 hours
Method: Cell Viability Assay—The Cells were treated with peptides for 24 hours at different peptide concentrations. The 3-(4,5-dimethylthiazol-2-yl)-5-(3-carboxymethoxyphenyl)-2-(4-sulfophenyl)-2H-tetrazolium compound from Promega Viability kit (Madison, Ill.) was added, and the cells were incubated at 37° C. for 1-2 hours. The optical density on 96-plate was analyzed with a microplate reader at 490 nm to determine cell viability. In addition, cells were stained with trypan blue after 24 hours of treatment with Y15 and the percent of cells that stained positive were determined with a hemacytometer. Cell adhesion assay—The poly-L-Lysine or Collagen (5 μg/ml) coated 96-well plates were blocked with the blocking buffer (medium with 0.5% BSA) for 1 hour at 37 C. The cells were pre-treated with drugs for 3 hours and plated for adhesion at 4×10^5 cells. Cells were incubated at 37 C for 1 hour, fixed in 3.7% formaldehyde, washed in 0.1% BSA in PBS and stained with crystal violet (5 mg/ml in 2% ethanol) for 10 minutes. Then 2% SDS was added to the dried plated and OD at 590 nm was measured for detecting cell adhesion. […] Protein concentrations were determined using a Bio-Rad Kit. The boiled samples were loaded on Ready SDS-10% PAGE gels (Bio Rad, Inc) and used for Western blot analysis with the protein-specific antibody. […] We calculated the percent of detachment by dividing the number of detached cells by the total number of cells. The percent of detached cells was calculated in three independent experiments. […] The percent of apoptotic cells was calculated as a ratio of apoptotic detached cells divided by the total number of cells in three independent experiments in several fields with the fluorescent microscope. For each experiment 300 cells per treatment were counted. […]

Question: How did the “detachment compared with TAE226” value turn out when `Cl.Cl.Cl.Cl.Nc1cc(N)c(N)cc1N` [Y15, 1,2,4,5-benzenetetraamine tetrahydrochloride] was run?
Answer: more detachment than TAE226

Question: What about the detachment (10 μM) of the same compound?
Answer: 13%

Question: And the detachment (50 μM)?
Answer: 32%
